Data: patent US10153510B2, “Non-aqueous redox flow batteries including 3,7-perfluoroalkylated phenothiazine derivatives” (University of Kentucky Research Foundation, priority 2014, dated 2018)
Values after ≈ are worked out from the molar mass of the structure shown. Values joined by “and” are separate entries in the source; they are usually repeats but may differ in a detail not shown here. Equal entries are not always repeated. Where two headings read alike, the source gives them in different places.

How the values were obtained:
[1] = Cyclic voltammetry, half wave redox potentials; format: physicochemical; details: 20 mV/s; for Low potential event vs. Li+/0: 5 mM analyte in 0.2 M LiBF4 in PC; for High potential event vs. Li+/0: 5 mM in 0.2 M LiBF4 in PC, (a) irreversible oxidation potential estimated from forward wave and estimated reverse wave
Protocol: (§1) Electrochemical experiments were performed in an argon-filled glovebox at room temperature. Cyclic voltammetry (CV) measurements were performed in a three-electrode cell with a 3 mm diameter glassy carbon working electrode, Pt wire counter electrode, and Li foil reference electrode; voltammograms were taken of 0.2 M LiBF4 in PC containing 5 mM analyte using a CH Instruments 605E potentiostat. For UV-vis spectra of neutral compounds, catholytes were dissolved at 0.2 mM or 5 mM in 0.2 M LiBF4 in PC in glovebox and were removed in special optical glass cuvettes (Starna) after sealing with Teflon caps. The solutions were subsequently monitored for 5 h on an Agilent 8453 diode-array spectrometer.
Cyclic voltammetry was used to characterize the electrochemical behavior of BCF3EPT and to characterize DBBB and TMeQ for comparison with reported data. The individual redox events for these electro-active materials can be used to estimate the open-circuit voltage (OCV) of an ORFB containing each catholyte-anolyte pair. LiBF4 (0.2M) was used in propylene carbonate (PC) for these experiments to allow for direct comparison with the previously reported DBBB/TMeQ battery. The voltammograms of BCF3EPT show a reversible first oxidation at a potential of 3.9 V vs. Li+/0, which corresponds to generation of the radical cation, followed by an irreversible second oxidation at ca. 4.4 V vs. Li+/0 (FIG. 2a) corresponding to formation of the dication. […] No peaks corresponding to the reduction of the neutral compounds was observed during the anodic scans of BC3EPT and DBBB in this electrolyte. […] The redox potentials of BCF3EPT and DBBB are similar, thus it is contemplated that they will give similar cell voltages when coupled with TMeQ in an ORFB.

[2] = Maximum solubility of electro-active species in 0.2 M LiBF4 in PC; format: physicochemical; details: organic solvent or mixture, thermodynamic from solid, room temperature
Protocol: as §1
To study the behavior of the new catholyte BCF3EPT relative to DBBB, a set of batteries with the same concentration of electro-active species as the reported DBBB/TMeQ battery (0.05 M), as well as with the highest concentration possible for all three species, were identified for comparison. The maximum solubilities for DBBB, TMeQ and BCF3EPT in 0.2 M LiBF4 in PC were ca. 0.18 M, 0.37 M, and 1.2 M, respectively. […] Batteries were also fabricated at the highest concentration possible for BCF3EPT and TMeQ (0.35 M), beyond that which was possible for DBBB. By this measure, two sets of batteries were able to be tested at the same concentrations, including one near the limiting concentration of DBBB, and a third that allowed for analysis of a battery near the solubility limit of TMeQ.

[3] = UV-vis stability of neutral and radical-cation forms (bulk electrolysis); format: physicochemical; details: for stability of neutral compound by UV-vis: 0.2 mM and 5 mM in LiBF4/PC, over 5 h
Protocol: as §1
Bulk electrolysis experiments were performed at 5 mM analyte in 0.2 M LiBF4 in PC with a Pt coiled-wire working electrode and a Li foil reference electrode, as well as a Pt wire counter electrode suspended in solution in a separate fitted glass tube. Electrolysis potentials were applied for 84 min in the glovebox, after which the solutions were diluted and removed from the glovebox in special optical glass cuvettes (Starna) sealed with Teflon caps. The solutions were subsequently monitored for 5 hours on an Agilent 8453 diode-array spectrometer.
Additionally, a compound that is stable in ambient conditions may be sensitive to electrolyte components, as was previously observed for a phenothiazine derivative with a tert-butyl group at the N position.(31) To compare the stability of the neutral and radical-cation forms of BCF3EPT to those of DBBB, UV-vis spectra were collected for both of the oxidation states of both compounds in LiBF4/PC. […] To simulate the charged species of each catholyte, the radical cation was generated by bulk electrolysis.

[4] = Stability rating of phenothiazine derivatives (Table 2 compilation); format: physicochemical
From the text: (§2) Table 2 includes a compilation of data related to phenothiazine derivatives overcharge data of phenothiazine compounds as well as whether the compounds are practical for use in redox flow batteries. Some phenothiazine derivatives have solubility and stability sufficient for overcharge protection, they are not sufficiently soluble to be practical for redox flow applications. As exemplified in Table 2, EPT and DClEPT are practical for overcharge protection but are not practical for redox flow.
(§3) The data includes overcharge data at 100% overcharge for EPT, DBrEPT, DClEPT, BCF3EPT and DCNEPT from Ergun, et al. Chem. Comm., 2014, 50, 5339-5341. (30) Overcharge data at constant overcharge for EPT and BCF3EPT is derived from the studies described in Kaur et al., J. Materials Chemistry A, 2014, 2, 18190-18193. (29) Overcharge data at 100% overcharge for PT, MPT and EPT provided in Table 2 was derived from studies described in Narayana et al. ChemPhysChem, 2015, 16, 1179-1189. (32) Overcharge results for BCF3CF2EPT and BCF3(4-CF3C6H4)PT are provided in FIGS. 10 and 11, respectively.

[5] = Solubility of phenothiazine derivatives (Table 2 compilation); format: physicochemical; details: electrolyte not stated
From the text: as §2, §3

[6] = 1.2 M LiPF6 in EC/EMC; cited from earlier work
[7] = organic solvent or mixture, read-out: Solubility

**Q.** Which “Low potential event vs. Li+/0” value [1] does the source give for `CCN1c2ccc(C(F)(F)F)cc2Sc2cc(C(F)(F)F)ccc21` [BCF3EPT, 3,7-bis(trifluoromethyl)-N-ethylphenothiazine] here?
**A.** The value was 3.9 V.

**Q.** And the solubility at 1 h [2]?
**A.** The solubility at 1 h was about 1200 mM (≈ 436 mg/mL).

**Q.** What about the “stability of neutral compound by UV-vis” value [3] of the same compound?
**A.** The value was “neither compound showed measurable signs of change”.

**Q.** And the “stability of radical cation (UV-vis, comparison)” value ([3]; 0.2 M LiBF4 in PC, 5 h period)?
**A.** Its value is “significantly more stable”.

**Q.** And the Stability [4]?
**A.** The Stability was “high”.

**Q.** What about the Solubility [5, 7] of the same compound?
**A.** The Solubility was 1500 to 2000 mM (≈ 545 to 727 mg/mL).

**Q.** And the “stability relative to DDB” value [6]?
**A.** The value was “higher stability”.

**Q.** Which Stability [4] does the source give for `CCN1c2ccc(C#N)cc2Sc2cc(C#N)ccc21` [BCF3(4-CF3C6H4)PT] here?
**A.** Its Stability is “High”.

**Q.** Which Stability [4] does the source give for `CCN1c2ccc(C#N)cc2Sc2cc(C#N)ccc21` [DCNEPT] here?
**A.** The Stability was “high”.

**Q.** What about the Solubility [5] of the same compound?
**A.** The Solubility was “low”.

**Q.** With `CCN1c2ccc(Br)cc2Sc2cc(Br)ccc21` [DBrEPT] as the compound, how does the Stability [4] read?
**A.** Its Stability is “high”.

**Q.** And the Solubility [5]?
**A.** Its Solubility is 100 mM (≈ 38.5 mg/mL).

**Q.** What does the source list for `CN1c2ccccc2Sc2ccccc21` [MPT]?
**A.** Stability [4]: high; Solubility [5]: 100 mM (≈ 21.3 mg/mL)

**Q.** What does the source list for `COCCOc1cc(C(C)(C)C)c(OCCOC)cc1C(C)(C)C` [DBBB, 2,5-di-tert-butyl-1,4-bis(2-methoxyethoxy)benzene]?
**A.** Low potential event vs. Li+/0 [1]: 4.0 V; High potential event vs. Li+/0 [1]: 4.7 V and 4.7^(a) V; solubility at 1 h [2]: ~180 mM (≈ 60.9 mg/mL); stability of neutral compound by UV-vis [3]: neither compound showed measurable signs of change

**Q.** For `CCN1c2ccc(C(F)(F)C(F)(F)F)cc2Sc2cc(C(F)(F)C(F)(F)F)ccc21` [BCF3CF2EPT], which Stability [4] is on record?
**A.** The Stability was “High”.

**Q.** What does the source list for `Cc1ccc2nc(C)c(C)nc2c1` [TMeQ, 2,3,6-trimethyl quinoxaline]?
**A.** Low potential event vs. Li+/0 [1]: 2.5 V; High potential event vs. Li+/0 [1]: 2.8 V; solubility at 1 h [2]: ~370 mM (≈ 63.7 mg/mL)

**Q.** For `CCN1c2ccc([N+](=O)[O-])cc2Sc2cc([N+](=O)[O-])ccc21` [DNO2EPT], which Solubility [5] is on record?
**A.** Its Solubility is “Low”.

**Q.** Which Stability [4] does the source give for `CCN1c2ccc(Cl)cc2Sc2cc(Cl)ccc21` [DClEPT] here?
**A.** Its Stability is “High”.

**Q.** And the Solubility [5]?
**A.** Its Solubility is 100 mM (≈ 29.6 mg/mL).

**Q.** Which Stability [4] does the source give for `c1ccc2c(c1)Nc1ccccc1S2` [PT] here?
**A.** Its Stability is “Low”.

**Q.** And the Solubility [5]?
**A.** The Solubility was 100 mM (≈ 19.9 mg/mL).

**Q.** With `CCN1c2ccccc2Sc2ccccc21` [EPT] as the compound, how does the Stability [4] read?
**A.** Its Stability is “High”.

**Q.** And the Solubility [5, 7]?
**A.** Its Solubility is 100 mM (≈ 22.7 mg/mL).
